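Following 48 hours of exposure in 96-well plates, responses at five concentrations were used to interpolate endpoints linearly. GI50 is the concentration that inhibits growth by half. TGI: concentration producing complete growth inhibition.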
Key:
Test in all cases: growth of human tumour cells (NCI), 48 h
[1] = system: NCI-H226 lung
[2] = system: MOLT-4 leukemia
[3] = system: NCI-H23 lung
[4] = system: RPMI-8226 leukemia
[5] = system: BT-549 breast
[6] = system: NCI-H460 lung
[7] = system: SR leukemia
[8] = system: SW-620 colon
[9] = system: MDA-MB-435
[10] = system: OVCAR-8 ovarian

Compound | GI50 [1] [µM] | TGI [1] [µM] | GI50 [2] [µM] | TGI [2] [µM] | GI50 [3] [µM] | TGI [3] [µM] | GI50 [4] [µM] | TGI [4] [µM] | GI50 [5] [µM] | TGI [5] [µM] | GI50 [6] [µM] | TGI [6] [µM] | GI50 [7] [µM] | TGI [7] [µM] | GI50 [8] [µM] | TGI [8] [µM] | GI50 [9] [µM] | TGI [9] [µM] | GI50 [10] [µM] | TGI [10] [µM]
COC(=O)[C@]12CC[C@@H](C)[C@H](C)[C@@H]1C1=CC[C@@H]3[C@@]4(C)CC(=O)[C@H](O)[C@@]5(C)COC(=C45)C[C@@]3(C)[C@]1(C)CC2 | 17.7 | 38.7 | 18.7 | 39.1 | 17.5 | 35.7 | 21 | 45.7 | 17.3 | 33.5 | 18.8 | 37.5 | 20.4 | 45.2 | 17.5 | 33.6 | 17 | 32.5 | 19.6 | 39.2
COC(=O)c1cnc(=O)n(C2CC(O)C(CO)O2)c1 (stereo not given) | > 100 | > 100 | > 100 | > 100 | > 100 | > 100 | 1.42 | > 58.5 | > 100 | > 100 | > 100 | > 100 | > 100 | > 100 | > 100 | > 100 | > 100 | > 100 | > 100 | > 100
Cc1ccc2c(c1)NC(c1ccc(C(=O)O)cc1)c1cccn1-2 (stereo not given) | – | > 100 | – | > 100 | – | > 100 | – | > 100 | – | > 100 | – | > 100 | – | > 100 | – | > 100 | – | > 100 | – | –
CC1(C)N=C(N)N=C(N)N1c1cccc(/C=C/C=C/c2cccc([N+](=O)[O-])c2)c1 | 10.9 | 34.1 | 5.9 | 23.6 | – | – | 1.31 | 16.3 | 6.91 | 23.8 | 2.85 | 15.3 | 4.71 | 29.2 | 2.56 | 18.8 | 2.68 | 15.2 | 13.8 | 30
O=C(Nc1n[nH]c2nc(-c3ccco3)c(Br)cc12)C1CC1 | > 25 | > 25 | > 25 | > 25 | > 25 | > 25 | > 25 | > 25 | > 25 | > 25 | > 25 | > 25 | > 25 | > 25 | > 25 | > 25 | > 25 | > 25 | > 25 | > 25
COc1ccc(N(C)c2nc(C)nc3ccccc23)cc1 | < 0.01 | 0.534 | < 0.01 | > 100 | < 0.01 | 20.8 | < 0.01 | 18 | < 0.01 | 36.9 | < 0.01 | – | < 0.01 | > 36.5 | < 0.01 | > 100 | < 0.01 | < 0.01 | < 0.01 | > 63.1
Cc1ccc(S(=O)(=O)N/N=C/C(Br)=C(/Br)C(=O)O)cc1 | – | 27.9 | – | 3.51 | – | 15.2 | – | 6.18 | – | 20.7 | – | 44.4 | – | 1.7 | – | 14 | – | 18.3 | – | 9.93
CC(Cc1ccc(Cl)cc1Cl)NO (stereo not given) | – | > 100 | – | > 100 | – | > 100 | – | > 100 | – | > 100 | – | – | – | > 100 | – | > 100 | – | > 100 | – | > 100

Source: PubChem BioAssay (NCI)
